Series [1] concerns tumor. Nature of the series: Tumor inhibition rate, general statements (chemical ablation study; positive controls). Format: in vivo.
For series [2], the system named is liver tissue. Nature of the series: Tissue necrosis study: necrotic zone of liver tissue after intrahepatic injection (Example 2). Format: in vivo, New Zealand Large White rabbits. How it is done: The rabbits were kept on conventional diet after drug administration, euthanized after 1 week, and the necrotic zone of the liver was determined after autopsy. The liver was incised along the center of the necrotic zone, and the extent of the necrotic zone was measured at the largest level, and the maximum and minimum diameters of the necrotic zone were measured respectively. The average diameter of the necrotic zone of liver tissue=(maximum diameter+minimum diameter)/2.

The test system of series [3] is sarcoma S180 cell. Nature of the series: Tumor inhibition effect in mice bearing sarcoma S180 cell (Example 2). Format: in vivo. The note with it: intratumoral injection; for Tumor weight (x ± s): 150 μl/mouse, once every 3 days x3, 5th day after end; for Tumor inhibition rate: vs negative control group 01. How it is done:
(§1) In the following examples of the present invention, the co-administration pharmaceutical efficacies of drug A and drug B combination administration was determined by ratio q of actual pharmaceutical efficacy/expected pharmaceutical efficacy according to Zhengjun JIN method, as follows.
In the tumor inhibition effect study, successfully modeled experimental animals (mice bearing sarcoma S180 cell, with an average tumor volume of 314 mm^3) were randomly divided into 2 negative control groups (01, 02) and 9 drug study groups (1-9). […] The negative control and study drugs were administered by intraperitoneal injection (groups 02, 6 and 9) and intratumoral injection (other study groups), respectively. Each group was administered once every 3 days for a total of 3 times, with an injection volume of 150 μl/mouse. On the 5th day after the administration was ended, the animals were euthanized, and the tumor weight was measured after anatomy to the animals. The tumor inhibition rate was calculated from the negative control group of each drug administration mode.

Series [4] can be described thus: pH of the study drug aqueous solution. Type of series: physicochemical.
Series [5] deals with breast cancer 4T1 cells. Nature of the series: Tumor inhibition, breast cancer 4T1 transplantation tumor (Example 8). Format: in vivo, BALB/c mouse. The settings on record: intratumoral; for Tumor weight (x ± s): 150 μl/mouse, once every 3 days x3, 5th day after end; for Tumor inhibition rate: vs negative control. How it is done: as §1
In an experiment, the test animal was a BALB/c mouse, the modeling cells were breast cancer 4T1 cells, and the transplantation tumor was modeled at 1×10^5 cells/mouse under the skin of the animal's right axilla. Successfully modeled experimental animals (with an average tumor volume of 336 mm^3) were divided into 1 negative control group (group 0) and 16 drug study groups (groups 1-16). […] Each group was administered by intratumoral injection once every 3 days for a total of 3 times, each time at an injection dose of 150 μl/mouse. On the 5th day after the administration was ended, the animals were euthanized, and the tumor weight was measured after anatomy to the animals. The tumor inhibition rate was calculated from the negative control group.

The test system of series [6] is mouse liver cancer Hepa1-6 cells. Nature of the series: Series B: tumor inhibition, Hepa1-6 transplantation tumor in 8-month-old mice (Example 10). Type of series: in vivo. The note with it: one intratumoral injection 100 μl/mouse; for r'3d, tumor inhibition rate (tumor volume): day 3; for r'14d, tumor inhibition rate (tumor volume): day 14. Here is the method: The animals in series B were modeled in 8-month-old mice as a middle-aged and elderly patient model, which was not consistent with the commonly used young patient model in terms of tumor formation, tumor histomorphology, and body immunocompetence. […] The model animals were randomly divided into 13 groups. Each group was administered once by intratumoral injection according to the drug grouping in Table 11 with an injection volume of 100 μl/mouse.
The actual/expected ratio […] for short-term drug efficacy and the actual/expected ratio q14d for medium-term drug efficacy were calculated based on the drug efficacies (r′3d, […]) at different times (day 3, day 14), respectively.

Series [7] concerns breast cancer 4T1 cells. Nature of the series: Tumor inhibition, breast cancer 4T1 transplantation tumor (Example 7). Format: in vivo, BALB/c mouse. The note with it: intratumoral; for Tumor weight (x ± s): 150 ul/mouse, once every 3 days x3, 5th day after end; for Tumor inhibition rate: vs negative control. Here is the method:
as §1
In an experiment, the test animal was a BALB/c mouse, the modeling cells were breast cancer 4T1 cells, and the transplantation tumor was modeled at 1×10^6 cells/mouse under the skin of the animal's right axilla. […] The negative controls and study drugs were administered intraperitoneally (groups 02, 11 and 15) and intratumorally (other study groups), respectively. All groups were dosed once every 3 days, for a total of 3 times, […], with an injection volume of 150 ul/mouse. On the 5th day after the administration was ended, the animals were euthanized, and the tumor weight was measured after anatomy to the animals. The tumor inhibition rate was calculated from the negative control group.

For series [8], the system named is breast cancer 4T1 cells. Nature of the series: Tumor inhibition, breast cancer 4T1 transplantation tumor (Example 4). The settings on record: intratumoral. Format: in vivo, BALB/c mice. How it is done: as §1
In another experiment, the test animal was BALB/c mice, the modeling cells were breast cancer 4T1 cells, and the transplantation tumor was modeled at 1×10^6 cells/mouse under the skin of the animal's right axilla. Successfully modeled experimental animals (average tumor volume 307 mm^3) were randomly divided into 1 negative control group (group 0) and 13 drug study groups (groups 1-13). […] Each group was administered by intratumoral injection once every 3 days for a total of 3 times, each time at an injection dose of 150 μl/mouse. On the 5th day after the administration was ended, the animals were euthanized, and the tumor weight was measured after anatomy to the animals. The tumor inhibition rate was calculated from the negative control group.

Series [9] has as its system outer lateral muscle of right leg. Nature of the series: Series A: tissue destruction in normal muscle after intramuscular injection (Example 10). Type of series: in vivo, nude mice. The note with it: one intramuscular injection 100 μl/mouse, day 3. How it is done:
The test animals were divided into two series, A and B. The animals in series A were non-modeled nude mice, randomly divided into four groups, and were injected with the drugs according to groups 1-4 in Table 11 by intramuscular injection of outer lateral muscle of right leg. Each group was administered once, at an injection volume of 100 μl/mouse. On day 3 after the administration was ended, the animals were euthanized, and the specimens from outer lateral muscle mass of right leg of the nude mice were dissected and taken out, and gross pathological analysis was performed. The muscle sections were measured for distinguishing the area of tissue destruction region in the normal muscle (incomplete necrosis) (T3a) and the area of severe tissue destruction region therein (complete necrosis) […], and the results are shown in Table 11 below.

Series [10] has as its system breast cancer 4T1 cells. Nature of the series: Tumor inhibition, breast cancer 4T1 transplantation tumor (Example 3). Format: in vivo, BALB/c mouse. The settings on record: intratumoral; for Tumor weight (x ± s): 150 μl/mouse, once every 3 days x3, 5th day after end; for Tumor inhibition rate: vs negative control. Here is the method:
as §1
In an experiment, the test animal was a BALB/c mouse, the modeling cells were breast cancer 4T1 cells, and the transplantation tumor was modeled at 1×10^6 cells/mouse under the skin of the animal's right axilla. […] Each group was administered by intratumoral injection once every 3 days for a total of 3 times, each time at an injection dose of 150 μl/mouse. On the 5th day after the administration was ended, the animals were euthanized, and the tumor weight was determined after anatomy to the animals. The tumor inhibition rate was calculated from the negative control group.

The mark [11] stands for this setting: positive controls, under the conditions of the following examples.
[12] abbreviates: study drugs of Example 2 (Table 4), aqueous solution.
[13] abbreviates: study drugs of Example 3 (Table 5), aqueous solution.

In turn, `CCO` [75-99% ethanol, ethanol] displayed a Tumor inhibition rate in [1] (setting [11]) of no less than 15%.
Take `[Na+].[OH-]` [0.3% NaOH, sodium hydroxide]: the “Diameter of necrotic zone of liver tissue (r ± s)” value (shortened to “Diameter”) in series [2] (rabbit, in vivo) is 1.3 ± 0.3 cm. In addition, in series [3], the “Tumor weight (x ± s)” value came out at 1.52 ± 0.22 g and the Tumor inhibition rate turned out to be 31%. In series [4] (setting [12]), this compound registered a pH of 13.3.
As for `[Na+].[OH-]` [sodium hydroxide], the Tumor inhibition rate in series [1] (chemical ablation study with basifying agents, model not stated) was determined as 43%. Besides, the pH in series [4] (sodium hydroxide solution before and after neutralization with sodium bicarbonate (e.g.)) stood at 12.
Regarding `CN(C)c1ccc2nc3ccc(=[N+](C)C)cc-3sc2c1` [1% methylene blue, methylene blue], in series [5], the “Tumor weight (x ± s)” value is reported as 1.73 ± 0.23 g and the Tumor inhibition rate is given as 23%. In addition, in series [6], the “r'3d, tumor inhibition rate (tumor volume)” value (“r'3d, tumor inhibition rate” below) is recorded as 27.8% and the “r'14d, tumor inhibition rate (tumor volume)” value (“r'14d, tumor inhibition rate” for short) is 16.9%. In addition, in series [7], the “Tumor weight (x ± s)” value was found to be 1.72 ± 0.27 g and the Tumor inhibition rate is 21%.
Turning to `O=c1[nH]cc(F)c(=O)[nH]1` [1% 5-fluorouracil, 5-fluorouracil], in series [5], the “Tumor weight (x ± s)” value amounted to 1.10 ± 0.26 g and the Tumor inhibition rate is reported as 51%. In series [6], the “r'3d, tumor inhibition rate” value was 26.8% and the “r'14d, tumor inhibition rate” value worked out at 3.1%. In addition, in series [7], the “Tumor weight (x ± s)” value is listed as 1.07 ± 0.26 g and the Tumor inhibition rate is given as 51%.
As to `O=c1[nH]cc(F)c(=O)[nH]1` [0.5-1% 5-fluorouracil, 5-fluorouracil], in series [1] (setting [11]), the Tumor inhibition rate is listed as no less than 30%.
Regarding `N=C(N)NCCC[C@H](N)C(=O)O` [15% arginine, arginine], in [2] (one intrahepatic injection of 1.0 mL, after 1 week), the “Diameter” value was 0.2 ± 0.1 cm. Moreover, the “Tumor weight (x ± s)” value is 2.01 ± 0.24 g in [3]; 1.74 ± 0.28 g in series [8] (150 μl/mouse, once every 3 days x3, 5th day after end); 1.64 ± 0.28 g in [7]. The Tumor inhibition rate in series [3] came to 23%; in [8] (vs negative control), 23%; in series [7], 25%. Besides, the pH in [4] (setting [12]) stood at 10.9; in series [4] (study drugs of Example 4 (Table 6), aqueous solution), 11.0; in [4] (study drugs of Example 7 (Table 9), aqueous solution), 10.9.
`O=C([O-])O.[Na+]` [7% sodium bicarbonate, sodium bicarbonate]: in [6], the “r'3d, tumor inhibition rate” value was found to be 4.1% and the “r'14d, tumor inhibition rate” value was 3.9%. In addition, in series [3], the “Tumor weight (x ± s)” value is listed as 1.59 ± 0.20 g and the Tumor inhibition rate was found to be 28%. In series [9], the “S3d, area of severe tissue destruction region (complete necrosis)” value was 0 mm^2 and the “T3d, area of tissue destruction region in the normal muscle (incomplete necrosis)” value is 0 mm^2. In series [10], the “Tumor weight (x ± s)” value turned out to be 1.73 ± 0.27 g and the Tumor inhibition rate amounted to 29%. Further, in series [4] (setting [12]), the pH stood at 8.1. Besides, the pH in [4] (setting [13]) is 8.1.
For `[Na+].[OH-]` [3% NaOH, sodium hydroxide], in series [2] (rabbit, in vivo), the “Diameter” value came to 1.8 ± 0.5 cm. For the same compound, the “r'3d, tumor inhibition rate” value in series [6] stood at 31.2%. Further, the “r'14d, tumor inhibition rate” value in series [6] amounted to 2.8%. Moreover, the results for the “Tumor weight (x ± s)” value in series [3] and in series [10] were 1.04 ± 0.21 g and 1.09 ± 0.25 g, respectively. The Tumor inhibition rate is given as 53% in series [3] and 55% in series [10]. Besides, in series [9], the “S3d, area of severe tissue destruction region (complete necrosis)” value turned out to be 18.3 mm^2. In series [9], the “T3d, area of tissue destruction region in the normal muscle (incomplete necrosis)” value was 29.6 mm^2. The pH came out at 13.8 in [4] (setting [12]); 11.8 in series [4] (study drugs of Example 2 (Table 4), aqueous solution, listed as 3% sodium hydroxide); 13.7 in series [4] (setting [13]).
In the case of `CCN(CC)c1ccc(C(=C2C=CC(=[N+](CC)CC)C=C2)c2cc(O)c(S(=O)(=O)O)cc2S(=O)(=O)O)cc1` [1% patent blue, patent blue], in series [5], the “Tumor weight (x ± s)” value worked out at 1.71 ± 0.25 g and the Tumor inhibition rate is reported as 24%.

For the origin of these results see patent publication US20230414617A1, “PHARMACEUTICAL COMPOSITION COMPRISING ACID-BASE NEUTRALIZATION COMBINATION AND APPLICATION THEREOF” (CHENGDU KUACHANGAOPU MEDICAL TECHNOLOGY CO., LTD., priority 2020, published 2023).
